The values below come from patent publication US7081256B2, “Quinolinone derivative pharmaceutical compositon and production method therefor” (Dainippon Ink and Chemicals, Inc., priority 2001, dated 2006).

Where two headings read alike, the source gives them in different places. A value given as a limit tells only on which side of the number the result lay.

The nature of data set [1]: Differential scanning calorimetry (DSC). To be noted: for DSC Fusion enthalpy ΔH: 25 to 250° C., heating rate 20° C./min. Type of data set: physicochemical. The text has this: Furthermore, the quinolinone derivative used in the present invention has a fusion enthalpy (ΔH) of 30 J/g or more, and preferably 35 J/g or more. […] As used herein, the term “fusion enthalpy” refers to a value obtained from an endothermic peak due to fusion of the quinolinone derivative crystal in differential scanning calorimetry (DSC) and is an index of the crystallinity.
(§1) • Measurement of particle size distribution: The particle size distribution was automatically measured by AEROSIZER (manufactured by Central Scientific Commerce, Inc.). • DSC method: Using DSC7 (manufactured by Perkin Elmer Co.), the measurement was conducted at a temperature within a range from 25 to 250° C. under the conditions of a heating rate of 20° C./min. by a normal method.
(In DSC, transitions show as peaks or steps in heat flow.)

Data set [2] is described as follows: Measurement of particle size distribution (AEROSIZER). To be noted: for Average particle diameter: mass median aerodynamic diameter. It is filed as physicochemical. As for the experimental part: As used herein, the expression “quinolinone derivative is in the form of particles, which have an average particle diameter of 0.5 to 10 μm and such a particle size distribution that particles having a particle diameter of 15 μm or less account for 90% or more of the totality of the particles” means that a mass median aerodynamic diameter in the volume-basis distribution obtained, when the particle size distribution of the quinolinone derivative is measured by an aerodynamic flight time type dry particle size distribution measuring apparatus (AEROSIZER: Central Scientific Commerce, Inc.), is within a range from 0.5 to 10 μm and the particles have such a particle size distribution that particles having a particle diameter of 15 μm or less account for 90% or more of the totality of the particles.
as §1

Data set [3] is described as follows: Dissolution test, paddle method, 50 rpm, 0.5% sodium lauryl sulfate. To be noted: paddle 50 rpm, compared with the non-ground product. It is filed as physicochemical. The procedure:
Furthermore, dissolution properties of these quinolinone derivatives were evaluated by the dissolution test (paddle method). The results are shown in FIG. 2. • Powder X-ray diffraction method: Using RINT-ULTIMA (manufactured by Rigaku Denki Kogyo Co., Ltd.), the measurement was conducted at a diffraction angle within a range from 5 to 40° under the conditions of Cu—Kα rays, 40 KV and 30 mA by the normal method. • Dissolution test method: According to the second method (paddle method) of the dissolution test method of The Pharmacopoeia of Japan, Fourteenth Edition, the measurement was conducted under the conditions of a paddle rotational speed of 50 rpm using 0.5% sodium lauryl sulfate as a test liquid.
(§2) According to the disintegration test of The Pharmacopoeia of Japan, Fourteenth Edition, the disintegration time of the resulting tablets was measured by using water as a test liquid (n=3). […]
as §2, §2

The conditions of data set [4]: dog, in vivo, po, 10 mg/kg.
Protocol: After oral administration, 30 ml of distilled water was orally administered. After oral administration, 2.5 ml of blood was collected from the antebrachial vein over time and was then centrifuged to obtain blood plasma. After adding the one-fold amount of acetonitrile to blood serum to remove protein, the amounts of quinolinone derivative and its metabolite were determined by using HPLC.
From the quantitatively determined values of the quinolinone derivative and its metabolite immediately after collecting blood, an average value of a maximum concentration in blood (Cmax) and an average value of an area under a curve of concentration in blood vs time (AUC) were determined.

Take `CCCCCCCCOc1c(O)c2ccc(NC(=O)/C=C/c3cc(OC)c(O)c(OC)c3)cc2n(C)c1=O` [Comparative Example 2, 7-(3,5-dimethoxy-4-hydroxycinnamoylamino)-3-octyloxy-4-hydroxy-1-methyl-2(1H)-quinoline]: the “Solid state by DSC (endothermic peak of β-type crystal)” value in data set [1] (after grinding in agate mortar for 30 minutes) is “amorphous state”.

For `CCCCCCCCOc1c(O)c2ccc(NC(=O)/C=C/c3cc(OC)c(O)c(OC)c3)cc2n(C)c1=O` [quinolinone derivative (A), 7-(3,5-dimethoxy-4-hydroxycinnamoylamino)-3-octyloxy-4-hydroxy-1-methyl-2(1H)-quinoline], the entries for the “Proportion (%) of particles having a particle diameter of 15 μm or less based on the totality of the particles” value (shortened to “Proportion (%)”) in data set [2] and in data set [2] (listed as (A)) were at least 9.9% and 9.9%, respectively. Besides, the Average particle diameter in data set [2] and in data set [2] (listed as (A)) was 25.3 μm each time. In addition, the “DSC Fusion enthalpy ΔH” value in data set [1] is on record as at least 49.9 J/g; in data set [1] (listed as (A)), 49.9 J/g.

For the compound `CCCCCCCCOc1c(O)c2ccc(NC(=O)/C=C/c3cc(OC)c(O)c(OC)c3)cc2n(C)c1=O` [quinolinone derivative (A-1), 7-(3,5-dimethoxy-4-hydroxycinnamoylamino)-3-octyloxy-4-hydroxy-1-methyl-2(1H)-quinoline], in data set [2] (listed as (A-1)), the “Proportion (%)” value was found to be 100% and the Average particle diameter is given as 4.5 μm. Besides, in data set [1] (listed as (A-1)), the “DSC Fusion enthalpy ΔH” value was 47.7 J/g. Further, the “dissolution rate (FIG. 2)” value in data set [3] is “drastically increased”.

`CCCCCCCCOc1c(O)c2ccc(NC(=O)/C=C/c3cc(OC)c(O)c(OC)c3)cc2n(C)c1=O` [quinolinone derivative (B), 7-(3,5-dimethoxy-4-hydroxycinnamoylamino)-3-octyloxy-4-hydroxy-1-methyl-2(1H)-quinoline]: the entries for the “Proportion (%)” value in data set [2] and in data set [2] (listed as (B)) were at least 0.6% and 0.6%, respectively. For the same compound, the Average particle diameter in data set [2] and in data set [2] (listed as (B)) was 33.3 μm each time. Moreover, the “DSC Fusion enthalpy ΔH” value in data set [1] is reported as at least 52.7 J/g; in data set [1] (listed as (B)) it was 52.7 J/g.

Take `CCCCCCCCOc1c(O)c2ccc(NC(=O)/C=C/c3cc(OC)c(O)c(OC)c3)cc2n(C)c1=O` [quinolinone derivative (B-1), 7-(3,5-dimethoxy-4-hydroxycinnamoylamino)-3-octyloxy-4-hydroxy-1-methyl-2(1H)-quinoline]: in data set [2] (listed as (B-1)), the “Proportion (%)” value is listed as 95% and the Average particle diameter came out at 6.6 μm. In data set [1] (listed as (B-1)), the “DSC Fusion enthalpy ΔH” value came out at 51.6 J/g. Moreover, in data set [4], the “AUC increase as compared with the non-ground product” value was 8.7 times and the “Cmax increase as compared with the non-ground product” value came to 9 times.
